Data on twelve compounds can be found in article PMC9572860, “Antiprotozoal Activity of Azabicyclo-Nonanes Linked to Tetrazole or Sulfonamide Cores” (Molecules, 2022).

Data set [1] has as its system T. b. rhodesiense STIB 900. Briefly: In vitro microplate resazurin assay against T. brucei rhodesiense. It counts as cell-based, Trypanosoma brucei rhodesiense. The conditions noted are these: for S.I. = IC50 (Cyt.)/IC50 (T.b.r.): L-6 cytotoxicity over T.b.r.; for IC50: Trypanosoma brucei, read-out: T. Brucei Rhodesiense IC50. How it is done: (§1) Compounds were tested for their activities against strains of P. falciparum and T. b. rhodesiense via microplate assays. Their cytotoxicity was determined with rat skeletal myoblasts (L-6 cells). Chloroquine and melarsoprol served as standards (Table 1).
Minimum essential medium (50 µL) supplemented with 25 mM HEPES, 1 g/L additional glucose, 1% MEM nonessential amino acids (100×), 0.2 mM 2-mercaptoethanol, 1 mM Na-pyruvate and 15% heat inactivated horse serum was added to each well of a 96-well microtiter plate. Serial drug dilutions of 11 three-fold dilution steps covering a range from 100 to 0.002 μg/mL were prepared. Then, 4 × 10^3 bloodstream forms of T. b. rhodesiense STIB 900 in 50 µL was added to each well and the plate incubated at 37 °C under a 5% CO2 atmosphere for 70 h. Ten microliters of resazurin solution (resazurin, 12.5 mg in 100 mL double-distilled water) was then added to each well and incubation continued for an additional 2–4 h. The plates were then read with a Spectramax Gemini XS microplate fluorometer (Molecular Devices Cooperation, Sunnyvale, CA, USA) using an excitation wavelength of 536 nm and an emission wavelength of 588 nm. Data were analyzed with the graphic program Softmax Pro (Molecular Devices Cooperation, Sunnyvale, CA, USA), which calculated IC50 values by linear regression and 4-parameter logistic regression from the sigmoidal dose inhibition curves. Melarsoprol (Arsobal Sanofi-Aventis, received from WHO) was used as control.
On the technique in general: Resazurin is reduced to fluorescent resorufin, in cell work by metabolically active cells.

The nature of data set [2]: In vitro cytotoxicity with L-6 cells. It counts as cell-based, rat. The protocol:
as §1
Assays were performed in 96-well microtiter plates, each well containing 0.1 mL of RPMI 1640 medium supplemented with 1% L-glutamine (200 mM) and 10% fetal bovine serum and 4000 L-6 cells (a primary cell line derived from rat skeletal myoblasts, ATCC CRL-1458™). Serial drug dilutions of 11 three-fold dilution steps covering a range from 100 to 0.002 μg/mL were prepared. After 70 h of incubation, the plates were inspected under an inverted microscope to assure the growth of the controls and sterile conditions. Then, 0.01 mL resazurin solution (resazurin, 12.5 mg in 100 ml double-distilled water) was added to each well and the plates incubated for another 2 h. The plates were read with a Spectramax Gemini XS microplate fluorometer (Molecular Devices Cooperation, Sunnyvale, CA, USA) using an excitation wavelength of 536 nm and an emission wavelength of 588 nm. The IC50 values were calculated by linear regression from the sigmoidal dose inhibition curves using SoftmaxPro software (Molecular Devices Cooperation, Sunnyvale, CA, USA). Podophyllotoxin (Sigma P4405) was used as control.

The next data set concerns P. falciparum NF54. In words: In vitro microplate 3H-hypoxanthine incorporation assay against P. falciparum NF54. The data set is classed as cell-based, Plasmodium falciparum. The following applies: for S.I. = IC50 (Cyt.)/IC50 (P.f. NF54): L-6 cytotoxicity over P.f. NF54; for IC50: Plasmodium falciparum, NF54 strain sensitive to chloroquine and pyrimethamine, erythrocytic stages, average of four determinations, read-out: P. Falciparum NF54 IC50. The protocol:
as §1
In vitro activity against erythrocytic stages of P. falciparum was determined using a ^3H-hypoxanthine incorporation assay, using the drug-sensitive NF54 strain [21] or the chloroquine- and pyrimethamine-resistant K1 strain [22]. Compounds were dissolved in DMSO at 10 mg/mL and added to parasite cultures incubated in RPMI 1640 medium without hypoxanthine, supplemented with HEPES (5.94 g/L), NaHCO3 (2.1 g/L), neomycin (100 U/mL), Albumax (5 g/L) and washed human red cells A+ at 2.5% hematocrit (0.3% parasitemia). Serial drug dilutions of 11 three-fold dilution steps covering a range from 100 to 0.002 µg/mL were prepared. The 96-well plates were incubated in a humidified atmosphere at 37 °C; 4% CO2, 3% O2, 93% N2. After 48 h, 0.05 mL of ^3H-hypoxanthine (=0.5 µCi) was added to each well of the plate. The plates were incubated for an additional 24 h under the same conditions. The plates were then harvested with a Betaplate cell harvester (Wallac, Zurich, Switzerland). The red blood cells were transferred onto a glass fiber filter and washed with distilled water. The dried filters were inserted into a plastic foil with 10 mL of scintillation fluid and counted in a Betaplate liquid scintillation counter (Wallac, Zurich, Switzerland). IC50 values were calculated from sigmoidal inhibition curves by linear regression using Microsoft Excel. Chloroquine (Sigma C6628) was used as control.

Where [3] appears, read: STIB 900 bloodstream forms, average of four determinations.

Where two headings read alike, the source gives them in different places.

The term IC50 denotes the concentration at which inhibition is half-maximal. For the compound `CC(C)(C)C(NCCN1CC2[C@H](c3ccccc3)CC(N3CCCCC3)(C[C@H]2c2ccccc2)C1)c1nnnn1C(C)(C)C` (mixture of isomers) [Compound 11A, rac-(1R)-1-(1-tert-Butyl-1H-tetrazol-5-yl)-2,2-dimethyl-N-{2-[(6R,9R)-6,9-diphenyl-1-(piperidin-1-yl)-3-azabicyclo[3.2.2]nonan-3-yl]ethyl}propan-1-amine], the “S.I. = IC50 (Cyt.)/IC50 (T.b.r.)” value in data set [1] came out at 3.04. Moreover, the IC50 in data set [1] (setting [3]) was found to be 6610 nM; in the data set with P. falciparum NF54, 2980 nM. The same compound gave an IC50 at 72 h in data set [2] (rat) of 20100 nM. In addition, the “S.I. = IC50 (Cyt.)/IC50 (P.f. NF54)” value with P. falciparum NF54 was 6.75.

Consider `CC(C)(C)C(NCCN1CC2[C@@H](c3ccccc3)CC(N3CCCCC3)(C[C@@H]2c2ccccc2)C1)c1nnnn1C(C)(C)C` (mixture of isomers) [Compound 11B, rac-(1R)-1-(1-tert-Butyl-1H-tetrazol-5-yl)-2,2-dimethyl-N-{2-[(6S,9S)-6,9-diphenyl-1-(piperidin-1-yl)-3-azabicyclo[3.2.2]nonan-3-yl]ethyl}propan-1-amine], for which, in data set [1], the “S.I. = IC50 (Cyt.)/IC50 (T.b.r.)” value stood at 1.34. For the same compound, in data set [1] (setting [3]), the IC50 came out at 4920 nM. In data set [2] (rat), the IC50 at 72 h is 6590 nM. In the data set on P. falciparum NF54, the “S.I. = IC50 (Cyt.)/IC50 (P.f. NF54)” value was 4.99 and the IC50 was found to be 1320 nM.

In the case of `CC(C)(C)n1nnnc1[C@H](NCCN1CC2C(c3ccccc3)CC(N3CCCCC3)(CC2c2ccccc2)C1)c1ccccc1` (mixture of isomers) [Compound 12A, rac-N-[(1R)-(1-tert-Butyl-1H-tetrazol-5-yl])(phenyl)methyl]-2-[(6R,9R)-6,9-diphenyl-1-(piperidin-1-yl)-3-azabicyclo[3.2.2]nonan-3-yl]ethan-1-amine], in data set [1], the “S.I. = IC50 (Cyt.)/IC50 (T.b.r.)” value is reported as 1.29. For the same compound, the IC50 in data set [1] (setting [3]) was found to be 2200 nM; in the data set with P. falciparum NF54, 252 nM. The compound also gave an IC50 at 72 h in data set [2] (rat) of 2830 nM. In the data set on P. falciparum NF54, the “S.I. = IC50 (Cyt.)/IC50 (P.f. NF54)” value is reported as 11.2.

As for `Cc1ccc([C@@H](NCCN2CC3C(c4ccccc4)CC(N4CCCCC4)(CC3c3ccccc3)C2)c2nnnn2C(C)(C)C)cc1` (mixture of isomers) [Compound 13A, rac-N-[(1R)-(1-tert-Butyl-1H-tetrazol-5-yl)(p-tolyl)methyl]-2-[(6R,9R)-6,9-diphenyl-1-(piperidin-1-yl)-3-azabicyclo[3.2.2]nonan-3-yl]ethan-1-amine], the “S.I. = IC50 (Cyt.)/IC50 (T.b.r.)” value in data set [1] was 7.75. Further, in data set [1] (setting [3]), the concentration for half-maximal inhibition (IC50) is 329 nM. The compound also showed an IC50 at 72 h in data set [2] (rat) of 2550 nM. Besides, in the data set on P. falciparum NF54, the “S.I. = IC50 (Cyt.)/IC50 (P.f. NF54)” value was 5.72 and the IC50 is 446 nM.

`CC(C)(C)n1nnnc1C(NCCN1CC2C(c3ccccc3)CC(N3CCCCC3)(CC2c2ccccc2)C1)c1ccccc1` (racemic) [Compound 12B, rac-N-[(1R)-1-tert-Butyl-1H-tetrazol-5-yl])(phenyl)methyl]-2-[(6S,9S)-6,9-diphenyl-1-(piperidin-1-yl)-3-azabicyclo[3.2.2]nonan-3-yl]ethan-1-amine]: the “S.I. = IC50 (Cyt.)/IC50 (T.b.r.)” value in data set [1] is listed as 1.68. The IC50 in data set [1] (setting [3]) turned out to be 1520 nM. The compound further came in with an IC50 at 72 h in data set [2] (rat) of 2560 nM. In the data set on P. falciparum NF54, the “S.I. = IC50 (Cyt.)/IC50 (P.f. NF54)” value was determined as 1.92 and the IC50 was found to be 1330 nM.

Consider `CC(C)(C)n1nnnc1CNCCN1CC2[C@H](c3ccccc3)CC(N3CCCCC3)(C[C@H]2c2ccccc2)C1` (racemic) [Compound 14, rac-(6R,9R)-N-[(1-tert-Butyl-1H-tetrazol-5-yl)methyl]-2-[6,9-diphenyl-1-(piperidin-1-yl)-3-azabicyclo[3.2.2]nonan-3-yl]ethan-1-amine], for which the “S.I. = IC50 (Cyt.)/IC50 (T.b.r.)” value in data set [1] is 14.17. The IC50 in data set [1] (setting [3]) came out at 1200 nM. In data set [2] (rat), this compound registered a concentration for half-maximal inhibition (IC50) at 72 h of 17000 nM. In addition, in the data set with P. falciparum NF54, the “S.I. = IC50 (Cyt.)/IC50 (P.f. NF54)” value is on record as 8.76 and the IC50 came to 1940 nM.

For the compound `CC(C)(C)n1nnnc1CN(CCN1CC2[C@H](c3ccccc3)CC(N3CCCCC3)(C[C@H]2c2ccccc2)C1)Cc1nnnn1C(C)(C)C` (racemic) [Compound 15, rac-(6R,9R)-N,N-bis[(1-tert-Butyl-1H-tetrazol-5-yl)methyl]-2-[6,9-diphenyl-1-(piperidin-1-yl)-3-azabicyclo[3.2.2]nonan-3-yl]ethan-1-amine], the “S.I. = IC50 (Cyt.)/IC50 (T.b.r.)” value in data set [1] was 3.21. Also, the IC50 in data set [1] (setting [3]) came out at 1300 nM; in the data set with P. falciparum NF54, 742 nM. Besides, half-maximal inhibition in data set [2] (rat) (IC50 at 72 h) required 4170 nM. Also, the “S.I. = IC50 (Cyt.)/IC50 (P.f. NF54)” value in the data set with P. falciparum NF54 is 5.62.

With `O=S(=O)(c1ccc(Cl)cc1)N1CCC2(N3CCCC3)C[C@H](c3ccccc3)C1[C@@H](c1ccccc1)C2` (racemic) [Compound 18, rac-(7R,8R)-2-(4-Chlorobenzenesulfonyl)-7,8-diphenyl-5-(pyrrolidin-1-yl)-2-azabicyclo[3.2.2]nonane], the “S.I. = IC50 (Cyt.)/IC50 (T.b.r.)” value in data set [1] is reported as 5.28. In data set [1] (setting [3]), the IC50 amounted to 1190 nM. This compound also showed an IC50 at 72 h in data set [2] (rat) of 6290 nM. Besides, in the data set with P. falciparum NF54, the “S.I. = IC50 (Cyt.)/IC50 (P.f. NF54)” value turned out to be 10.4 and the IC50 came to 606 nM.

In the case of `Cc1ccc(S(=O)(=O)NCCN2CCC3(N4CCCCC4)C[C@H](c4ccccc4)C2[C@@H](c2ccccc2)C3)cc1` (racemic) [Compound 19, rac-(7R,8R)-4-Methyl-N-[2-(7,8-diphenyl-5-(piperidin-1-yl)-2-azabicyclo[3.2.2]nonan-2-yl)ethyl]benzenesulfonamide], the “S.I. = IC50 (Cyt.)/IC50 (T.b.r.)” value in data set [1] was 9.39. Also, the IC50 in data set [1] (setting [3]) came out at 1150 nM; in the data set with P. falciparum NF54, 577 nM. The same compound had an IC50 at 72 h in data set [2] (rat) of 10800 nM. The “S.I. = IC50 (Cyt.)/IC50 (P.f. NF54)” value in the data set on P. falciparum NF54 was determined as 18.7.

Turning to `Cc1ccc(S(=O)(=O)NCCN2CCC3(N4CCCC4)C[C@H](c4ccccc4)C2[C@@H](c2ccccc2)C3)cc1` (racemic) [Compound 20, rac-(7R,8R)-4-Methyl-N-{2-[7,8-diphenyl-5-(pyrrolidin-1-yl)-2-azabicyclo[3.2.2]nonan-2-yl]ethyl}benzenesulfonamide], the “S.I. = IC50 (Cyt.)/IC50 (T.b.r.)” value in data set [1] was determined as 11.0. For the same compound, the IC50 came to 647 nM in data set [1] (setting [3]) and 487 nM with P. falciparum NF54. Moreover, in data set [2] (rat), the IC50 at 72 h worked out at 7150 nM. Besides, in the data set on P. falciparum NF54, the “S.I. = IC50 (Cyt.)/IC50 (P.f. NF54)” value came to 14.7.

For the compound `Cc1ccc(C(NCCN2CC3C(c4ccccc4)CC(N4CCCCC4)(CC3c3ccccc3)C2)c2nnnn2C(C)(C)C)cc1` (stereo in doubt) [Compound 13B, rac-N-[(1R)-(1-tert-butyl-1H-tetrazol-5-yl)(p-tolyl)methyl]-2-[(6S,9S)-6,9-diphenyl-1-(piperidin-1-yl)-3-azabicyclo[3.2.2]nonan-3-yl]ethan-1-amine], the “S.I. = IC50 (Cyt.)/IC50 (T.b.r.)” value in data set [1] turned out to be 2.06. The half-maximal inhibitory concentration (IC50) in data set [1] (setting [3]) came out at 1000 nM. In data set [2] (rat), this compound registered an IC50 at 72 h of 2060 nM. Moreover, in the data set on P. falciparum NF54, the “S.I. = IC50 (Cyt.)/IC50 (P.f. NF54)” value turned out to be 3.03 and the IC50 was 680 nM.

Turning to `Nc1nc(N)nc(Nc2ccc([As]3SCC(CO)S3)cc2)n1` (stereo not shown) [MEL, melarsoprol, reference compound], in data set [1], the “S.I. = IC50 (Cyt.)/IC50 (T.b.r.)” value amounted to 864 and the IC50 is 9 nM. Also, the IC50 at 72 h in data set [2] (rat skeletal myoblasts, average of four determinations, read-out: Cytotox. L-6 Cells IC50) is 7780 nM.
